Experimental data: publication PMC6774872 (Cancer research, 2019)

System: lactate dehydrogenase A (LDHA); measured as cellular LDH activity
Test: LDH activity
Format: cell-based

NCI-737
IC50: ~100 nM
